{"source": "patent US5730968A", "about": "“Segmented chelating polymers as imaging and therapeutic agents” (Sterling Winthrop Inc., priority 1994, dated 1998)", "test": "blood pool retention time in rodents, against […]", "assay_type": "in vivo", "description": "Retention time in the chart below is reported as the blood pool half life, T 1/2 (minutes) for half of the composition to be depleted from the blood pool."}
{"smiles": "CNC[C@H](O)[C@@H](O)[C@H](O)[C@H](O)CO.CNC[C@H](O)[C@@H](O)[C@H](O)[C@H](O)CO.O=C([O-])CN(CCN(CC(=O)[O-])CC(=O)O)CCN(CC(=O)[O-])CC(=O)O.[Gd+3]", "note": "[Magnevist]", "values": [{"measurement": "Blood Pool T1/2 (blood pool half life, for half of the composition to be depleted from the blood pool)", "result": 12, "unit": "min"}]}
